# Activity calls are given as the source filed them. The rule behind the calls is not given here. Where a SMILES comes first, the peptide text is derived from it.
# How the values were obtained:
# Staphylococcus aureus [1] = assay: Bactericidal activity against methicillin resistant Staphylococcus aureus ATCC BAA 1556 assessed as reduction in colony formation at MIC measured at 8 to 12 hrs by Time kill assay; format: functional, organism-based; conditions: time 8-12 hrs
# Staphylococcus aureus [2] = assay: Antibacterial activity against Staphylococcus aureus ATCC BAA -1556 assessed as vancomycin MIC incubated for 24 hrs by microbroth dilution assay; format: functional
# Pseudomonas aeruginosa [3] = assay: Synergistic antibacterial activity against Pseudomonas aeruginosa ATCC 27883 assessed as fractional inhibitory concentration index incubated for 24 hrs in presence of tetracycline by checkerboard assay; format: functional
# Staphylococcus aureus [4] = assay: Antibacterial activity against Staphylococcus aureus ATCC BAA -1556 assessed clindamycin MIC incubated for 24 hrs by microbroth dilution assay; format: functional
# Escherichia coli [5] = assay: Antibacterial activity against Escherichia coli ATCC 25922 assessed as kanamycin MIC incubated for 24 hrs by microbroth dilution assay; format: functional
# Staphylococcus aureus [6] = assay: Bactericidal activity against methicillin resistant Staphylococcus aureus ATCC BAA 1556 assessed as reduction in bacterial viability at MIC measured after 4 hrs by Time kill assay; format: functional, organism-based
# Klebsiella pneumoniae [7] = assay: Antibacterial activity against Klebsiella pneumoniae ATCC BAA 1705 assessed as vancomycin MIC incubated for 24 hrs by microbroth dilution assay; format: functional
# Klebsiella pneumoniae [8] = assay: Synergistic antibacterial activity against Klebsiella pneumoniae ATCC BAA 1705 assessed as fractional inhibitory concentration index incubated for 24 hrs in presence of tobramycin by checkerboard assay; format: functional
# Cell membrane [9] = assay: Induction of membrane disruption in Staphylococcus aureus ATCC BAA -1556 assessed as increase in PI positive cells at MIC incubated for 2 hrs by Propidium iodide staining based FACS cytometry analysis relative to control
# Staphylococcus aureus [10] = assay: Bactericidal activity against methicillin resistant Staphylococcus aureus ATCC BAA 1556 assessed as reduction in bacterial viability at MIC measured after 2 hrs by Time kill assay; format: functional, organism-based
# Pseudomonas aeruginosa [11] = assay: Antibacterial activity against Pseudomonas aeruginosa ATCC 27883 assessed as polymyxin B MIC incubated for 24 hrs by microbroth dilution assay; format: functional
# Cell membrane [12] = assay: Induction of membrane disruption in Pseudomonas aeruginosa ATCC BAA 1744 assessed as increase in PI positive cells at MIC incubated for 2 hrs by Propidium iodide staining based FACS cytometry analysis relative to control
# Staphylococcus aureus [13] = assay: Synergistic antibacterial activity against Staphylococcus aureus ATCC 29213 assessed as fractional inhibitory concentration index incubated for 24 hrs in presence of meropenem by checkerboard assay; format: functional
# Klebsiella pneumoniae [14] = assay: Synergistic antibacterial activity against Klebsiella pneumoniae ATCC BAA 1705 assessed as fractional inhibitory concentration index incubated for 24 hrs in presence of levofloxacin by checkerboard assay; format: functional
# Staphylococcus aureus [15] = assay: Antibacterial activity against Staphylococcus aureus ATCC BAA -1556 assessed as daptomycin MIC incubated for 24 hrs by microbroth dilution assay; format: functional
# HEK293 = assay: Cytotoxicity against HEK293 cells assessed as effect on cell viability at 10 ug/ml incubated for 24 hrs by microplate reader analysis; format: toxicity, cell-based; conditions: human, hek293, 24 h, dose 10 µg/ml
# Klebsiella pneumoniae [16] = assay: Synergistic antibacterial activity against Klebsiella pneumoniae ATCC BAA 1705 assessed as fractional inhibitory concentration index incubated for 24 hrs in presence of clindamycin by checkerboard assay; format: functional
# Pseudomonas aeruginosa [17] = assay: Antibacterial activity against Pseudomonas aeruginosa ATCC 27883 assessed as vancomycin MIC incubated for 24 hrs by microbroth dilution assay; format: functional
# Klebsiella pneumoniae [18] = assay: Synergistic antibacterial activity against Klebsiella pneumoniae ATCC 13883 assessed as fractional inhibitory concentration index incubated for 24 hrs in presence of meropenem by checkerboard assay; format: functional
# Pseudomonas aeruginosa [19] = assay: Antibacterial activity against Pseudomonas aeruginosa ATCC 27883 assessed as levofloxacin MIC incubated for 24 hrs by microbroth dilution assay; format: functional
# Escherichia coli [20] = assay: Antibacterial activity against Escherichia coli ATCC 25922 assessed as ciprofloxacin MIC incubated for 24 hrs by microbroth dilution assay; format: functional
# Klebsiella pneumoniae [21] = assay: Synergistic antibacterial activity against Klebsiella pneumoniae ATCC BAA 1705 assessed as fractional inhibitory concentration index incubated for 24 hrs in presence of ciprofloxacin by checkerboard assay; format: functional
# Staphylococcus aureus [22] = assay: Antibacterial activity against Methicillin resistant Staphylococcus aureus ATCC BAA -1556 assessed as reduction in microbial growth incubated for 24 hrs by microbroth dilution method; format: functional
# Pseudomonas aeruginosa [23] = assay: Bactericidal activity against Pseudomonas aeruginosa ATCC BAA 1744 assessed as reduction in bacterial growth at MIC measured after 4 hrs by Time kill assay; format: functional, organism-based
# Cell membrane [24] = assay: Induction of membrane disruption in Staphylococcus aureus ATCC BAA -1556 assessed as increase in PI positive cells at 4 times of MIC incubated for 2 hrs by Propidium iodide staining based FACS cytometry analysis relative to control; format: subcellular
# HepaRG [25] = assay: Cytotoxicity against human HepaRG cells assessed as assessed as reduction in cell viability at 10 ug/ml incubated for 24 hrs by microplate reader analysis; format: toxicity, cell-based; conditions: dose 10 µg/ml
# Klebsiella pneumoniae [26] = assay: Synergistic antibacterial activity against Klebsiella pneumoniae ATCC BAA 1705 assessed as fractional inhibitory concentration index incubated for 24 hrs in presence of daptomycin by checkerboard assay; format: functional
# Escherichia coli [27] = assay: Bactericidal activity against Escherichia coli ATCC BAA 2452 assessed as reduction in colony formation at MIC measured after 12 hrs by Time kill assay; format: functional, organism-based
# Staphylococcus aureus [28] = assay: Synergistic antibacterial activity against methicillin resistant Staphylococcus aureus ATCC BAA -1556 assessed as fractional inhibitory concentration index incubated for 24 hrs in presence of tetracycline by checkerboard assay; format: functional
# Escherichia coli [29] = assay: Antibacterial activity against Escherichia coli ATCC 25922 assessed as tetracycline MIC incubated for 24 hrs by microbroth dilution assay; format: functional
# Escherichia coli [30] = assay: Synergistic antibacterial activity against Escherichia coli ATCC 25922 assessed as fractional inhibitory concentration index incubated for 24 hrs in presence of tetracycline by checkerboard assay; format: functional
# Escherichia coli [31] = assay: Antibacterial activity against Escherichia coli ATCC 25922 assessed as vancomycin MIC incubated for 24 hrs by microbroth dilution assay; format: functional
# Escherichia coli [32] = assay: Synergistic antibacterial activity against carbapenem and NDM-1 positive resistant Escherichia coli ATCC BAA 2452 assessed as fractional inhibitory concentration index incubated for 24 hrs in presence of meropenem by checkerboard assay; format: functional
# Escherichia coli [33] = assay: Synergistic antibacterial activity against Escherichia coli ATCC 25922 assessed as fractional inhibitory concentration index incubated for 24 hrs in presence of vancomycin by checkerboard assay; format: functional
# Klebsiella pneumoniae [34] = assay: Synergistic antibacterial activity against Klebsiella pneumoniae ATCC BAA 1705 assessed as fractional inhibitory concentration index incubated for 24 hrs in presence of polymyxin B by checkerboard assay; format: functional
# Klebsiella pneumoniae [35] = assay: Synergistic antibacterial activity against Klebsiella pneumoniae ATCC BAA 1705 assessed as fractional inhibitory concentration index incubated for 24 hrs in presence of kanamycin by checkerboard assay; format: functional
# Escherichia coli [36] = assay: Synergistic antibacterial activity against Escherichia coli ATCC 25922 assessed as fractional inhibitory concentration index incubated for 24 hrs in presence of levofloxacin by checkerboard assay; format: functional
# HepaRG [37] = assay: Cytotoxicity against human HepaRG cells assessed as assessed as reduction in cell viability at 50 to 150 ug/ml incubated for 24 hrs by microplate reader analysis relative to control; format: toxicity, cell-based; conditions: at 50 to 150 µg/mL, dose 50-150 µg/ml
structure (smiles),measurement,setting,value
N=C(N)NCCC[C@@H]1NC(=O)[C@H](CCCNC(=N)N)NC(=O)[C@H](CCCNC(=N)N)NC(=O)[C@H](CCCNC(=N)N)NC(=O)[C@H](Cc2c[nH]c3ccccc23)NC(=O)[C@H](Cc2c[nH]c3ccccc23)NC(=O)[C@H](Cc2c[nH]c3ccccc23)NC(=O)[C@H](Cc2c[nH]c3ccccc23)NC(=O)[C@H](CCCCN)NC(=O)[C@H](CCCNC(=N)N)NC1=O (cyclo(KWWWWRRRRR)),Activity,Staphylococcus aureus [1],Active
same,MIC,Staphylococcus aureus [2],0.25 mg/L
same,fractional inhibitory concentration index (FICI),Pseudomonas aeruginosa [3],0.375
same,MIC,Staphylococcus aureus [4],0.031 mg/L
same,MIC,Escherichia coli [5],4 mg/L
same,Activity,Staphylococcus aureus [6],Active
same,MIC,Klebsiella pneumoniae [7],16 mg/L
same,fractional inhibitory concentration index (FICI),Klebsiella pneumoniae [8],0.375
same,Activity,Cell membrane [9],48.2%
same,Activity,Staphylococcus aureus [10],Active
same,MIC,Pseudomonas aeruginosa [11],0.125 mg/L
same,Activity,Cell membrane [12],39.9%
same,fractional inhibitory concentration index (FICI),Staphylococcus aureus [13],0.5
same,fractional inhibitory concentration index (FICI),Klebsiella pneumoniae [14],0.375
same,MIC,Staphylococcus aureus [15],0.5 mg/L
same,Activity,HEK293,Non-Toxic
same,fractional inhibitory concentration index (FICI),Klebsiella pneumoniae [16],0.257
same,MIC,Pseudomonas aeruginosa [17],8 mg/L
same,fractional inhibitory concentration index (FICI),Klebsiella pneumoniae [18],0.625
same,MIC,Pseudomonas aeruginosa [19],0.125 mg/L
same,MIC,Escherichia coli [20],8 mg/L
same,fractional inhibitory concentration index (FICI),Klebsiella pneumoniae [21],0.562
same,MIC,Staphylococcus aureus [22],4 mg/L
same,Activity,Pseudomonas aeruginosa [23],Active
same,Activity,Cell membrane [24],81.3%
same,Activity,HepaRG [25],Non-Toxic
same,fractional inhibitory concentration index (FICI),Klebsiella pneumoniae [26],0.313
same,Activity,Escherichia coli [27],Active
same,fractional inhibitory concentration index (FICI),Staphylococcus aureus [28],0.5
same,MIC,Escherichia coli [29],2 mg/L
same,fractional inhibitory concentration index (FICI),Escherichia coli [30],0.5
same,MIC,Escherichia coli [31],16 mg/L
same,fractional inhibitory concentration index (FICI),Escherichia coli [32],0.5
same,fractional inhibitory concentration index (FICI),Escherichia coli [33],0.5625
same,fractional inhibitory concentration index (FICI),Klebsiella pneumoniae [34],0.313
same,fractional inhibitory concentration index (FICI),Klebsiella pneumoniae [35],0.375
same,fractional inhibitory concentration index (FICI),Escherichia coli [36],0.375
same,Activity,HepaRG [37],71%

# From ChEMBL document CHEMBL5154823, “Amphiphilic cyclic peptide [W4KR5]-Antibiotics combinations as broad-spectrum antimicrobial agents” (Eur J Med Chem, 2022)
